{
  "source": "patent US20140235649A1",
  "about": "“USE OF PHOSPHATASE INHIBITORS OR HISTONE DEACETYLASE INHIBITORS TO TREAT DISEASES CHARACTERIZED BY LOSS OF PROTEIN FUNCTION” (LIXTE BIOTECHNOLOGY, INC., priority 2011, published 2014)",
  "key": {"[1]": {"test_system": "beta-glucocerebrosidase (GBA)", "experiment": "GBA levels in human cells from Gaucher's disease type 1 / type 3 patients (Examples 2-4)"}, "SDHB protein": {"test_system": "SDHB protein", "experiment": "SDHB protein levels in tumor cells from SDHB derived tumors (Examples 9-10)", "details": "Example 9, versus untreated cells"}, "[2]": {"test_system": "missense glucocerebrosidase", "details": "previously found (REF); cited from earlier work"}, "ΔSDHB-L65P": {"test_system": "ΔSDHB-L65P", "experiment": "ΔSDHB-L65P protein half-life through CHX treatment, Western blot, HeLa cells", "type": "cell-based, human", "protocol": "Western blot analysis was performed as previously described with minor modifications (Zhuang et al, 2011). Microdissected tumor tissue and cell pellets were extracted for protein using RIPA lysis buffer supplemented with Halt proteinase inhibitor cocktail (Thermo Scientific, Rockford, Ill.). Protein was vortexed at 4° C. for 20 min and centrifuged in 12,000 g for 10 min at 4° C. Supernatant was collected and protein quantity was identified through a Bio-Rad (Hercules, Calif.) Protein Assay kit. Equal amount of proteins were separated on NuPAGE 4-12% Bis-Tris gel (Invitrogen, Carlsbad, Calif.) and transferred to PVDF membranes (Invitrogen). Membranes were blocked in 5% skim dried milk in PBST and blotted with primary antibody. Protein expression was identified through chemiluminescence kit (Thermo Scientific). The following antibodies were used: SDHA (1:1,000, Cell Signaling Technology, Beverly, Mass.), SDHB (1:1,000, Sigma-Aldrich, St. Louis Mo.), Flag (1:2,000, Origene, Rockville, Md.), Ubiquitin (1:1,000, Abcam, Cambridge, Mass.), HA (1:2,000, Origene), Hsp90 (1:1,000, Cell Signaling Technology) and β-Actin (1:1,000, Santa Cruz Biotechnology, Inc., Santa Cruz, Calif.).\nHeLa cells were maintained in DMEM containing 10% FBS (Invitrogen). Cells were transfected with SDHB vectors by FuGENE 6 transfection reagent (Roche, Indianapolis, Ind.). Medium was changed 4 hours after transfection and cells were maintained 48 hours before cycloheximide (20 μg/mL, Sigma-Aldrich) treatment.\nUbiquitin-HA vector was described previously (Kamitani et al. (1997)). Human wild type SDHB gene was cloned into pCMV6-Entry vector (Origene). Hot spot missense mutations in SDHB related PHEOs/PGLs based on previous findings (Van Nederveen et al. (2006); Henderson et al. (2009); Pawlu et al. (2005)). Mutagenesis was performed based on wild type SDHB vector using a Quikchange Lightning Site-Directed Mutagenesis Kit (Agilent, Santa Clara, Calif.). For each mutant, the sequence of SDHB gene was verified through sequencing the entire coding region of the gene. Vectors were purified through PureLink HiPure Plasmid Maxiprep kit (Invitrogen) for transfection and cell free protein expression."}, "mutant SDHB protein": {"test_system": "mutant SDHB protein", "experiment": "Immunoprecipitation of mutant SDHB: ubiquitination and Hsp90 binding", "type": "cell-based, human", "details": "immunoprecipitated ΔSDHB-R49Q (FIG. 14E)", "protocol": "Protein was extracted from cell cultures using IP lysis buffer with Halt proteinase inhibitor cocktail (Thermo Scientific). Four hundred microgram of total protein was precipitated with Flag antibody (1:200, Origene) using a DynaBeads Protein G immunoprecipitation kit (Invitrogen). Proteins were precipitated overnight at 4° C. and eluted for Western blot analysis."}, "VHL protein": {"test_system": "VHL protein", "experiment": "VHL protein levels in tumor cells from VHL derived tumors (Examples 6-7)", "details": "Example 6, versus untreated cells"}, "ΔGBA-N370S": {"test_system": "ΔGBA-N370S", "experiment": "Metabolic [35S] pulse chase assay, HeLa cells with ΔGBA-N370S vector", "type": "cell-based, human", "details": "N370S mutant", "protocol": "(§1) Human GBA gene was cloned into pCMV6-Entry vector (Origene; Rockville, Md.). Mutagenesis was performed using a QuikChange Lightning Site-directed mutagenesis kit (Agilent; Santa Clara, Calif.). Mutagenesis reaction was conducted using primers with N370S and L444P mutation sites. For each mutant, the sequence of GBA genes was verified by sequencing the entire coding regions.\n(§2) Metabolic [^35S] pulse chase assay was performed as previously described with minor modifications (16). A total of 5×10^5 HeLa cells were transfected with GBA vectors through FuGene 6 transfection reagent (Roche; Indianapolis, Ind.). Cells were used for pulse chase assay 24 hr after transfection. Cells were starved in methionine-depleted medium for 15 min followed by 15 min labeling in methionine-free Delbecco's modified Eagle medium (DMEM) supplemented with 10% FBS and 0.2 mCi/mL [^35S]-methionine ([…] specific activity, Perkin Elmer). The cells were then chased in DMEM with 10% FBS and 3 mg/mL methionine. Cells were extracted for protein within various durations after radioactive labeling. Cells were lysed in RIPA lysis buffer containing with Halt proteinase inhibitor cocktail (Thermo; Waltham, Mass.). GBA proteins were purified through immunoprecipitation using 200 ug total lysate with Flag antibody (Origene; Rockville, Md.). Precipitated proteins were resolved on NuPAGE Novex 4-12% Bis-Tris Gel (Invitrogen; Carlesbad, Calif.) and measured by liquid scintillation counting. The gel was fixed and incubated in EN3HANCE (Perkin Elmer; Waltham, Mass.) for 45 min and dried for X-ray film exposure."}, "ΔGBA-L444P": {"test_system": "ΔGBA-L444P", "experiment": "Metabolic [35S] pulse chase assay, HeLa cells with ΔGBA-L444P vector", "type": "cell-based, human", "details": "L444P mutant", "protocol": "as §1, §2"}},
  "note": "“Also recorded” adds a separate entry of the source.",
  "data": [
    {"smiles": "CN1CCN(C(=O)C2C(C(=O)O)[C@H]3CC[C@@H]2O3)CC1", "note": "(stereo partly shown) [LB100]", "values": [
      {"measurement": "GBA levels / amount of GBA", "setting": "[1]; Gaucher's disease type 1 and type 3 cells, 24 hours (Example 3, FIG. 1-3)", "value": "increased; also recorded: increased in all treatments, and the increase was not dose-dependent; also recorded: significantly higher than in untreated cells"},
      {"measurement": "GBA levels", "setting": "[1]; Gaucher's disease type 3 cells, 24 hours (Example 2)", "value": "significantly higher than in untreated cells"}
    ]},
    {"smiles": "O=C(CCCCCNC(=O)c1ccccc1S)Nc1ccccc1", "note": "[LB-201]", "values": [
      {"measurement": "SDHB levels", "setting": "SDHB protein", "value": "significantly higher than in untreated cells"},
      {"measurement": "degradation of SDHB", "setting": "SDHB protein", "value": "decreased degradation of SDHB"},
      {"measurement": "co-translational degradation of missense glucocerebrosidase", "setting": "[2]", "value": "protect missense glucocerebrosidase from co-translational degradation"},
      {"measurement": "degradation / loss of mutant SDHB protein", "setting": "ΔSDHB-L65P; L65P mutant", "value": "slowed the degradation of mutant protein; also recorded: decreased the loss of mutant SDHB"},
      {"measurement": "Hsp90 binding to mutant SDHB", "setting": "mutant SDHB protein", "value": "also decreased"},
      {"measurement": "SDHB mutant protein ubiquitination", "setting": "mutant SDHB protein", "value": "decreased SDHB mutant protein ubiquitination"},
      {"measurement": "VHL levels", "setting": "VHL protein", "value": "significantly higher than in untreated cells"},
      {"measurement": "degradation of VHL", "setting": "VHL protein", "value": "decreased degradation of VHL"}
    ]},
    {"smiles": "CC1=C(O)C(=O)C=C2C1=CC=C1[C@@]2(C)CC[C@@]2(C)[C@@H]3C[C@](C)(C(=O)O)CC[C@]3(C)CC[C@]12C", "note": "[celastrol]", "values": [
      {"measurement": "increase in radioactively labeled protein quantity", "setting": "ΔGBA-N370S", "value": 33, "unit": "%"},
      {"measurement": "SDHB protein remaining intact", "setting": "ΔSDHB-L65P; L65P, after a 2 hr CHX treatment", "value": "more than 50%"},
      {"measurement": "increase in [35S]-GBA residue", "setting": "ΔGBA-L444P", "value": 104, "unit": "%"}
    ]}
  ]
}
